# In US8153559B2, “Certain plant growth regulators (PGRs) as safener to Glyphosate for application to Glyphosate-tolerant crops” (CP Bio, Inc., priority 2004, dated 2012):
# Tested on: Round-Up Ready crops
# Experiment: Field tests on use of Glyphosate on Round-Up Ready crops
# Format: in vivo
# Conditions: Glyphosate-tolerant (Round-Up Ready) crops
# Source text: This adverse effect is referred to as the Glyphosate's phytotoxicity in present application.
structure (smiles),measurement,value
O=C(O)CNCP(=O)(O)O [Glyphosate],effect on the growth of Round-Up Ready crops (Glyphosate's phytotoxicity),substantial adverse effect to the growth
